Assay results reported in PubChem BioAssay AID1963978 (Molecular Pharmacology Branch, DTP, NCI, 2024).

System: 616215-338-R-J1-PDC spheroids with HUVEC/MSC, viability
Test: Anticancer human tumor 616215-338-R-J1-PDC patient-derived colon adenocarcinoma cell line growth inhibition [PI3K]
Conditions: for IC50: curve of first compound; for viability, T/C: stronger effect = lower value
Summary of the method: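 Spheroid viability read-out. Co-cultures contained the tumor line plus HUVEC and human MSCs. Each agent was paired with a PI3K inhibitor (inavolisib, alpelisib, duvelisib, copanlisib) across half-log dilutions starting at clinical Cmax, or at 10 microM when Cmax was unknown.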

[1] = second compound 0.00316 µM, first compound 0.0316 µM
[2] = second compound 0.00316 µM, first compound 0.1 µM
[3] = second compound 0.00316 µM, first compound 0.316 µM
[4] = second compound 0.00316 µM, first compound 1 µM
[5] = second compound 0.01 µM, first compound 0.0316 µM
[6] = second compound 0.01 µM, first compound 0.1 µM
[7] = second compound 0.01 µM, first compound 0.316 µM
[8] = second compound 0.01 µM, first compound 1 µM
[9] = second compound 0.0316 µM, first compound 0.0316 µM
[10] = second compound 0.0316 µM, first compound 0.1 µM
[11] = second compound 0.0316 µM, first compound 0.316 µM
[12] = second compound 0.0316 µM, first compound 1 µM
[13] = second compound 0.1 µM, first compound 0.0316 µM
[14] = second compound 0.1 µM, first compound 0.1 µM
[15] = second compound 0.1 µM, first compound 0.316 µM
[16] = second compound 0.1 µM, first compound 1 µM
[17] = second compound 0.316 µM, first compound 0.0316 µM
[18] = second compound 0.316 µM, first compound 0.1 µM
[19] = second compound 0.316 µM, first compound 0.316 µM
[20] = second compound 0.316 µM, first compound 1 µM
[21] = second compound 1 µM, first compound 0.0316 µM
[22] = second compound 1 µM, first compound 0.1 µM
[23] = second compound 1 µM, first compound 0.316 µM
[24] = second compound 1 µM, first compound 1 µM
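Also: spheroids exposed to agents for seven days before the viability read.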

Which IC50 (second compound 0.00316 µM) does the source give for `Cn1ncc(Cl)c1-c1cc(C(=O)NC(CN)Cc2cccc(F)c2)sc1Cl` (centres undefined) + COc1c(OCCCN2CCOCC2)ccc2c3n(c(=NC(=O)c4cnc(N)nc4)nc12)CCN3 here?
The IC50 was 2980 nM.

And the IC50 (second compound 0.01 µM)?
The IC50 was 2960 nM.

And the IC50 (second compound 0.0316 µM)?
Its IC50 is 2490 nM.

And the IC50 (second compound 0.1 µM)?
Its IC50 is 1890 nM.

What about the IC50 (second compound 0.316 µM) of the same compound?
Its IC50 is under 31.6 nM.

What about the IC50 (second compound 1 µM) of the same compound?
Its IC50 is under 31.6 nM.

What about the viability, T/C [1] of the same compound?
Its viability, T/C is 95.1%.

What about the viability, T/C [2] of the same compound?
The viability, T/C was 90.2%.

What about the viability, T/C [3] of the same compound?
The viability, T/C was 91.7%.

And the viability, T/C [4]?
Its viability, T/C is 99.6%.

What about the viability, T/C (second compound 0.00316 µM, first compound 3.16 µM) of the same compound?
The viability, T/C was 47.6%.

What about the viability, T/C (second compound 0.00316 µM, first compound 10 µM) of the same compound?
The viability, T/C was 16.6%.

And the viability, T/C [5]?
The viability, T/C was 108%.

What about the viability, T/C [6] of the same compound?
The viability, T/C was 96.3%.

What about the viability, T/C [7] of the same compound?
The viability, T/C was 94.6%.

What about the viability, T/C [8] of the same compound?
Its viability, T/C is 92.9%.

And the viability, T/C (second compound 0.01 µM, first compound 3.16 µM)?
The viability, T/C was 47.3%.

What about the viability, T/C (second compound 0.01 µM, first compound 10 µM) of the same compound?
The viability, T/C was 17.6%.

And the viability, T/C [9]?
The viability, T/C was 102%.

And the viability, T/C [10]?
The viability, T/C was 104%.

And the viability, T/C [11]?
The viability, T/C was 96.7%.

What about the viability, T/C [12] of the same compound?
The viability, T/C was 75.2%.

And the viability, T/C (second compound 0.0316 µM, first compound 3.16 µM)?
The viability, T/C was 43.9%.

What about the viability, T/C (second compound 0.0316 µM, first compound 10 µM) of the same compound?
The viability, T/C was 15.1%.

And the viability, T/C [13]?
Its viability, T/C is 90.8%.

What about the viability, T/C [14] of the same compound?
Its viability, T/C is 86.8%.

What about the viability, T/C [15] of the same compound?
Its viability, T/C is 79.7%.

What about the viability, T/C [16] of the same compound?
The viability, T/C was 72.8%.

What about the viability, T/C (second compound 0.1 µM, first compound 3.16 µM) of the same compound?
The viability, T/C was 32.2%.

And the viability, T/C (second compound 0.1 µM, first compound 10 µM)?
Its viability, T/C is 12.9%.

What about the viability, T/C [17] of the same compound?
Its viability, T/C is 45%.

And the viability, T/C [18]?
Its viability, T/C is 35%.

And the viability, T/C [19]?
Its viability, T/C is 35.5%.

And the viability, T/C [20]?
The viability, T/C was 32%.

And the viability, T/C (second compound 0.316 µM, first compound 3.16 µM)?
Its viability, T/C is 27.2%.

And the viability, T/C (second compound 0.316 µM, first compound 10 µM)?
The viability, T/C was 15.3%.

And the viability, T/C [21]?
Its viability, T/C is 21.4%.

What about the viability, T/C [22] of the same compound?
Its viability, T/C is 28.2%.

And the viability, T/C [23]?
The viability, T/C was 16.9%.

And the viability, T/C [24]?
Its viability, T/C is 20.9%.

And the viability, T/C (second compound 1 µM, first compound 3.16 µM)?
Its viability, T/C is 16.6%.

What about the viability, T/C (second compound 1 µM, first compound 10 µM) of the same compound?
Its viability, T/C is 7.24%.

Which results are given for `CCN1CCN(Cc2ccc(Nc3ncc(F)c(-c4cc(F)c5nc(C)n(C(C)C)c5c4)n3)nc2)CC1` + CC(Nc1ccc2c(c1)OCCn1cc(N3C(=O)OCC3C(F)F)nc1-2)C(N)=O?
IC50 (second compound 0.00316 µM): > 1000 nM; IC50 (second compound 0.01 µM): > 1000 nM; IC50 (second compound 0.0316 µM): > 1000 nM; IC50 (second compound 0.1 µM): > 1000 nM; IC50 (second compound 0.316 µM): > 1000 nM; IC50 (second compound 1 µM): > 1000 nM; viability, T/C (second compound 0.00316 µM, first compound 0.00316 µM): 93.8%; viability, T/C (second compound 0.00316 µM, first compound 0.01 µM): 100%; viability, T/C [1]: 96.3%; viability, T/C [2]: 98.7%; viability, T/C [3]: 131%; viability, T/C [4]: 111%; viability, T/C (second compound 0.01 µM, first compound 0.00316 µM): 94.9%; viability, T/C (second compound 0.01 µM, first compound 0.01 µM): 102%; viability, T/C [5]: 98.5%; viability, T/C [6]: 102%; viability, T/C [7]: 113%; viability, T/C [8]: 102%; viability, T/C (second compound 0.0316 µM, first compound 0.00316 µM): 103%; viability, T/C (second compound 0.0316 µM, first compound 0.01 µM): 111%; viability, T/C [9]: 99.8%; viability, T/C [10]: 107%; viability, T/C [11]: 112%; viability, T/C [12]: 96.6%; viability, T/C (second compound 0.1 µM, first compound 0.00316 µM): 104%; viability, T/C (second compound 0.1 µM, first compound 0.01 µM): 94.3%; viability, T/C [13]: 99.3%; viability, T/C [14]: 108%; viability, T/C [15]: 107%; viability, T/C [16]: 74.5%; viability, T/C (second compound 0.316 µM, first compound 0.00316 µM): 102%; viability, T/C (second compound 0.316 µM, first compound 0.01 µM): 110%; viability, T/C [17]: 105%; viability, T/C [18]: 97.8%; viability, T/C [19]: 96.1%; viability, T/C [20]: 57.6%; viability, T/C (second compound 1 µM, first compound 0.00316 µM): 113%; viability, T/C (second compound 1 µM, first compound 0.01 µM): 90.9%; viability, T/C [21]: 84.6%; viability, T/C [22]: 85.5%; viability, T/C [23]: 73.7%; viability, T/C [24]: 49.6%
